# Experimental data published in article PMC11842588, “A first-in-class selective inhibitor of ERK1/2 and ERK5 overcomes drug resistance with a single-molecule strategy” (Signal Transduction and Targeted Therapy, 2025).
# Experiments:
# [1] = H&E staining of major organs; type: in vivo; settings: xenograft study, heart, liver, spleen, lung, kidney
# Protocol: All procedures were performed in accordance with the Laboratory Animals Welfare Act, the Guide for the Care and Use of Laboratory Animals and the Guidelines and Policies. The rodent experiment was approved by IACUC (Institutional Animal Care and Use Committee) in the Experimental Animal Ethics Committee of West China Hospital (Approval No. 2021672A). 48 female nude mice (BALB/c-nu, 5 weeks, 15–18 g, purchased from Beijing HFK Bio-Technology Co., LTD) were acclimatized for one week in an SPF-grade animal facility (ventilated, 20–25 °C, 50–60% humidity). […] When the tumor volume reached approximately 100 mm^3 (V = L × W^2/2), the mice were randomly divided into six groups (n = 8 per group): (1) Control group (normal saline); (2) 25 mg/kg SKLB-D18-treated group; (3) 50 mg/kg SKLB-D18-treated group; (4) 50 mg/kg BVD-523-treated group; (5) 50 mg/kg XMD8-92-treated group; (6) BVD-523 (50 mg/kg) and XMD8-92 (50 mg/kg) combined treatment group. Drugs were freshly prepared with 5% DMSO, 10% Solutol HS-15, and 85% normal saline on the day of administration. Intragastric administration occurred once daily at the same time for 16 consecutive days. And the body weight and tumor volume of mice were measured every three days. […]
# First, the fixed major organs of nude mice were dehydrated, embedded, and sectioned. […] Staining results and tissue morphology were analyzed under a microscope.
# MDA-MB-231 cells = assay: MTT cell viability assay; type: cell-based
# Protocol: (§1) MDA-MB-468 and MDA-MB-436 cells were cultured in Leibovitz’s L-15 medium supplemented with 10% fetal bovine serum. […] All of the cells were cultured at 37 °C in a humidified atmosphere containing 5% CO2.
# (§2) Cancer cells were seeded in a density in 96-well plates (2 × 10^3 cells per well). After incubation for 24 h, cancer cells were treated with compounds (0–20 μM) for 72 h.
# MDA-MB-468 cells = assay: MTT cell viability assay; type: cell-based
# Protocol: as §1, §2
# MDA-MB-436 cells = assay: MTT cell viability assay; type: cell-based; settings: Homo sapiens, 72 h
# Protocol: as §1, §2
# BT549 cells = assay: MTT cell viability assay; type: cell-based; settings: Homo sapiens, BT-549, 72 h
# Protocol: as §1, §2
# MAPK2(h) = assay: Kinase profiling; type: biochemical, human; settings: 1 μM
# Protocol: (§3) 380 kinases inhibitory activities of SKLB-D18 were conducted by Eurofins Cerep SA. The result was illustrated by kinase tree (http://www.kinhub.org/kinmap/).
# MDA-MB-231 xenograft = MDA-MB-231 xenograft tumor growth inhibition; type: in vivo, nude mice (BALB/c-nu); settings: 50 mg/kg (each drug), intragastric once daily, 16 days, by tumor weight
# Protocol: All procedures were performed in accordance with the Laboratory Animals Welfare Act, the Guide for the Care and Use of Laboratory Animals and the Guidelines and Policies. The rodent experiment was approved by IACUC (Institutional Animal Care and Use Committee) in the Experimental Animal Ethics Committee of West China Hospital (Approval No. 2021672A). 48 female nude mice (BALB/c-nu, 5 weeks, 15–18 g, purchased from Beijing HFK Bio-Technology Co., LTD) were acclimatized for one week in an SPF-grade animal facility (ventilated, 20–25 °C, 50–60% humidity). […] When the tumor volume reached approximately 100 mm^3 (V = L × W^2/2), the mice were randomly divided into six groups (n = 8 per group): (1) Control group (normal saline); (2) 25 mg/kg SKLB-D18-treated group; (3) 50 mg/kg SKLB-D18-treated group; (4) 50 mg/kg BVD-523-treated group; (5) 50 mg/kg XMD8-92-treated group; (6) BVD-523 (50 mg/kg) and XMD8-92 (50 mg/kg) combined treatment group. Drugs were freshly prepared with 5% DMSO, 10% Solutol HS-15, and 85% normal saline on the day of administration. Intragastric administration occurred once daily at the same time for 16 consecutive days. And the body weight and tumor volume of mice were measured every three days. After the administration period, all nude mice were euthanized by cervical dislocation the next day. Tumors and vital organs (heart, liver, spleen, lung, kidney) were dissected, and tumors were weighed, then immediately fixed in 4% paraformaldehyde or stored in −80 °C.
# ERK2 = ERK2 (Homo sapiens, UniProt P28482); assay: Isothermal titration calorimetry (ITC) assay; type: binding; settings: 25 °C
# Sequence of ERK2 (P28482 whole entry, the tested form may be a part): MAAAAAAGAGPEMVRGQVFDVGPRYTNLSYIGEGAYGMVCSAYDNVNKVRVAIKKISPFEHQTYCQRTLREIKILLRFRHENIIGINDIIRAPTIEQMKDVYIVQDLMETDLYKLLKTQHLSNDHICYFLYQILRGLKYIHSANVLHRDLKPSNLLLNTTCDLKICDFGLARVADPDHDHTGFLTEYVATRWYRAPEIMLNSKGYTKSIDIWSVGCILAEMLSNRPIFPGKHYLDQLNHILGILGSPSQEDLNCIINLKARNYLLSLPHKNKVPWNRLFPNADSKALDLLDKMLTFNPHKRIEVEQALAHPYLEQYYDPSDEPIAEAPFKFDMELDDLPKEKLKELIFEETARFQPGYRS
# Protocol: (§4) The full-length human ERK1 or ERK2 with His-tag was cloned into a pET28a vector. hERK1/2 were expressed in Escherichia coli BL21(DE3), and then were purified using sequential Ni-NTA and Superdex 200 column steps. The SEC purified sample was then concentrated to 10 mg/ml and stored at −80 °C with buffer containing 20 mM HEPES pH 7.5, 150 mM NaCl. ERK5 (residues 48–395) containing His and GST tags was cloned into the pFastBac vector, and the recombinant plasmid was extracted. The recombinant plasmid was transformed into the DH10bac strain, and monoclonal was selected for culture. The recombinant Bacmid was then extracted according to the instructions of the Baculovirus Shuttle Vector Bacmid Mini Preparation Kit (Beyotime) and validated by PCR. 1 × 10^6/well Sf9 cells were counted for transfection and then amplified to obtain P3 ERK5 recombinant baculovirus. It was added to 2 × 10^6/mL Sf9 cells and incubated at 27 °C for 72 h on a shaker to express ERK5. Cells were lysed and supernatant was collected on a Ni-NTA for purification, and a 250 mM imidazole eluate was collected. […]
# (§5) Calorimetric experiments were carried on an Affinity ITC (Waters, Shanghai) with 1 mM SKLB-D18 and 0.1 mM ERK1/2/5. […] The data were analyzed with the NanoAnalyze software employing a single binding site model. […]
# ERK1 = ERK1 (Homo sapiens, UniProt P27361); assay: Isothermal titration calorimetry (ITC) assay; type: binding; settings: 25 °C
# Sequence of ERK1 (P27361 whole entry): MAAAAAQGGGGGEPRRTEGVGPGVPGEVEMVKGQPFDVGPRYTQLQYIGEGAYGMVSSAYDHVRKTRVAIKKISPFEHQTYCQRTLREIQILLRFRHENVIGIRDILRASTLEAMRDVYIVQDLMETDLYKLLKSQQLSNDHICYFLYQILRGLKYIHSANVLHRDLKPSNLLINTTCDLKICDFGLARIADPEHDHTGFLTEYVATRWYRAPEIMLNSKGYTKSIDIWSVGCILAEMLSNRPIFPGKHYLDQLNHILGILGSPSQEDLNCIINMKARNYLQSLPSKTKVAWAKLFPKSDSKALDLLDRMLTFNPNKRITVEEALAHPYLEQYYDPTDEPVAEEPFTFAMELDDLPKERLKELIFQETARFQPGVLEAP
# Protocol: as §4, §5
# [2] = Body weight and adverse effects in xenograft study; type: in vivo, nude mice (BALB/c-nu); settings: 25 and 50 mg/kg orally daily for 16 days
# Protocol: All procedures were performed in accordance with the Laboratory Animals Welfare Act, the Guide for the Care and Use of Laboratory Animals and the Guidelines and Policies. The rodent experiment was approved by IACUC (Institutional Animal Care and Use Committee) in the Experimental Animal Ethics Committee of West China Hospital (Approval No. 2021672A). 48 female nude mice (BALB/c-nu, 5 weeks, 15–18 g, purchased from Beijing HFK Bio-Technology Co., LTD) were acclimatized for one week in an SPF-grade animal facility (ventilated, 20–25 °C, 50–60% humidity). […] When the tumor volume reached approximately 100 mm^3 (V = L × W^2/2), the mice were randomly divided into six groups (n = 8 per group): (1) Control group (normal saline); (2) 25 mg/kg SKLB-D18-treated group; (3) 50 mg/kg SKLB-D18-treated group; (4) 50 mg/kg BVD-523-treated group; (5) 50 mg/kg XMD8-92-treated group; (6) BVD-523 (50 mg/kg) and XMD8-92 (50 mg/kg) combined treatment group. Drugs were freshly prepared with 5% DMSO, 10% Solutol HS-15, and 85% normal saline on the day of administration. Intragastric administration occurred once daily at the same time for 16 consecutive days. And the body weight and tumor volume of mice were measured every three days. After the administration period, all nude mice were euthanized by cervical dislocation the next day. […]
# 380 kinases = assay: Kinase profiling, whole panel; type: biochemical, human; settings: 1 µM, panel of 380 kinases
# Protocol: as §3
# [3] = tested on: MDA-MB-231 cells with knockdown of ERK1/2/5; assay: MTT assay in ERK1/2/5 siRNA knockdown cells; type: cell-based; settings: Homo sapiens, siRNA co-transfection
# Protocol: (§6) The transient transfection processes were performed according to Lipofectamine 3000 transfection procedure details. The transfected cells were used for subsequent experiments after 48 h or 72 h.
# as §2
# [4] = tested on: MDA-MB-468 cells with knockdown of ERK1/2/5; assay: MTT assay in ERK1/2/5 siRNA knockdown cells; type: cell-based; settings: Homo sapiens, siRNA co-transfection
# Protocol: as §6, §2
structure (smiles),measurement,setting,value
"CN(C)Cc1cccc(Nc2ncc(Cl)c(-c3csc(C(=O)NN4CCOCC4)c3)n2)c1 [SKLB-D18, 4-(5-chloro-2-((3-((dimethylamino)methyl)phenyl)amino)pyrimidin-4-yl)-N-morpholinothiophene-2-carboxamide]",toxicity to major organs (H&E staining),[1],no significant toxicity
same,"Anti-proliferative activity (10 μM, %) MDA-MB-231",MDA-MB-231 cells; 10 μM,93.44 ± 1.21%
same,IC50,"MDA-MB-231 cells; Homo sapiens, MDA-MB-231, read-out: IC50 MDA-MB-231, MTT, 72 h",0.93 ± 0.11 µM
same,"Anti-proliferative activity (10 μM, %) MDA-MB-468",MDA-MB-468 cells; 10 μM,92.18 ± 0.93%
same,IC50,"MDA-MB-468 cells; Homo sapiens, MDA-MB-468, MTT, 72 h",1.05 ± 0.13 µM
same,IC50,MDA-MB-436 cells,2.31 ± 0.29 µM
same,IC50,BT549 cells,3.21 ± 0.34 µM
same,Inhibition%,MAPK2(h),56%
same,tumor inhibition rate,MDA-MB-231 xenograft,79.88%
same,Kd,ERK2,0.21 µM
same,Kd,ERK1,0.127 µM
same,weight loss or adverse effects,[2],No significant weight loss or adverse effects
same,number of protein kinases outside of ERK1/2/5 inhibited by >70%,380 kinases,8
same,IC50,[3],14.8 µM
same,IC50,[4],19.8 µM
